Measured values from ChEMBL document CHEMBL2177037, “10'-Fluorovinblastine and 10'-Fluorovincristine: Synthesis of a Key Series of Modified Vinca Alkaloids” (ACS Med Chem Lett, 2011).
Calls of active or inactive are those of the source. No cut-off for these calls is given here.

What was measured:
L1210 [1] = test: Cytotoxicity against mouse L1210 cells; type: functional, cell-based
HCT-116/VM46 [2] = test: Cytotoxicity against human vinblastin-resistant HCT116/VM46 cells; type: functional, cell-based
HCT-116 [3] = test: Cytotoxicity against human HCT116 cells; type: functional, cell-based
HCT-116 [4] = test: Ratio of vincristine IC50 to compound IC50 for human HCT116 cells; type: functional
HCT-116/VM46 [5] = test: Ratio of vincristine IC50 to compound IC50 for human vincristine-resistant HCT116/VM46 cells; type: functional
L1210 [6] = test: Ratio of vincristine IC50 to compound IC50 for mouse L1210 cells; type: functional
HCT-116 [7] = test: Antitumor activity against human HCT116 cells xenografted in mouse assessed as mouse survival at 0.5 mg/kg; type: functional, organism-based; parameters: dose 0.5 mg/kg

SMILES | IC50 (L1210 [1]) | IC50 (HCT-116/VM46 [2]) | IC50 (HCT-116 [3]) | Ratio IC50 (HCT-116 [4]) | Ratio IC50 (HCT-116/VM46 [5]) | Ratio IC50 (L1210 [6]) | Activity (HCT-116 [7])
CCC1=C[C@H]2CN(CCc3c([nH]c4ccc(SC)cc34)[C@@](C(=O)OC)(c3cc4c(cc3OC)N(C)[C@H]3[C@@](O)(C(=O)OC)[C@H](OC(C)=O)[C@]5(CC)C=CCN6CC[C@]43[C@@H]65)C2)C1 | 60 nM | 770 nM | 85 nM |  |  |  | 
CCC1=C[C@H]2CN(CCc3c([nH]c4ccc(I)cc34)[C@@](C(=O)OC)(c3cc4c(cc3OC)N(C)[C@H]3[C@@](O)(C(=O)OC)[C@H](OC(C)=O)[C@]5(CC)C=CCN6CC[C@]43[C@@H]65)C2)C1 | 620 nM | 1800 nM | 600 nM |  |  |  | 
CC[C@]1(O)C[C@H]2CN(CCc3c([nH]c4ccc(SC)cc34)[C@@](C(=O)OC)(c3cc4c(cc3OC)N(C)[C@H]3[C@@](O)(C(=O)OC)[C@H](OC(C)=O)[C@]5(CC)C=CCN6CC[C@]43[C@@H]65)C2)C1 | 50 nM | 780 nM | 50 nM |  |  |  | 
CC[C@]1(O)C[C@H]2CN(CCc3c([nH]c4c(Cl)cccc34)[C@@](C(=O)OC)(c3cc4c(cc3OC)N(C)[C@H]3[C@@](O)(C(=O)OC)[C@H](OC(C)=O)[C@]5(CC)C=CCN6CC[C@]43[C@@H]65)C2)C1 | 330 nM | 5000 nM | 220 nM |  |  |  | 
CC[C@]1(O)C[C@H]2CN(CCc3c([nH]c4ccc(OC)cc34)[C@@](C(=O)OC)(c3cc4c(cc3OC)N(C)[C@H]3[C@@](O)(C(=O)OC)[C@H](OC(C)=O)[C@]5(CC)C=CCN6CC[C@]43[C@@H]65)C2)C1 | 670 nM | > 10000 nM | 720 nM |  |  |  | 
CC[C@]1(O)C[C@H]2CN(CCc3c([nH]c4ccc(Cl)cc34)[C@@](C(=O)OC)(c3cc4c(cc3OC)N(C)[C@H]3[C@@](O)(C(=O)OC)[C@H](OC(C)=O)[C@]5(CC)C=CCN6CC[C@]43[C@@H]65)C2)C1 | 6.2 nM | 720 nM | 7.6 nM |  |  |  | 
CC[C@]1(O)C[C@H]2CN(CCc3c([nH]c4ccc(I)cc34)[C@@](C(=O)OC)(c3cc4c(cc3OC)N(C)[C@H]3[C@@](O)(C(=O)OC)[C@H](OC(C)=O)[C@]5(CC)C=CCN6CC[C@]43[C@@H]65)C2)C1 | 55 nM | 840 nM | 60 nM |  |  |  | 
CCC1=C[C@H]2CN(CCc3c([nH]c4c(Br)cccc34)[C@@](C(=O)OC)(c3cc4c(cc3OC)N(C)[C@H]3[C@@](O)(C(=O)OC)[C@H](OC(C)=O)[C@]5(CC)C=CCN6CC[C@]43[C@@H]65)C2)C1 | 600 nM | 3900 nM | 740 nM |  |  |  | 
CC[C@]1(O)C[C@H]2CN(CCc3c([nH]c4ccc(F)cc34)[C@@](C(=O)OC)(c3cc4c(cc3OC)N(C=O)[C@H]3[C@@](O)(C(=O)OC)[C@H](OC(C)=O)[C@]5(CC)C=CCN6CC[C@]43[C@@H]65)C2)C1 | 0.8 nM |  | 1.5 nM | 5 | 5 | 5 | 
CC[C@]1(O)C[C@H]2CN(CCc3c([nH]c4c(F)cccc34)[C@@](C(=O)OC)(c3cc4c(cc3OC)N(C)[C@H]3[C@@](O)(C(=O)OC)[C@H](OC(C)=O)[C@]5(CC)C=CCN6CC[C@]43[C@@H]65)C2)C1 | 50 nM | 730 nM | 65 nM |  |  |  | 
CCC1=C[C@H]2CN(CCc3c([nH]c4c(Cl)cccc34)[C@@](C(=O)OC)(c3cc4c(cc3OC)N(C)[C@H]3[C@@](O)(C(=O)OC)[C@H](OC(C)=O)[C@]5(CC)C=CCN6CC[C@]43[C@@H]65)C2)C1 | 640 nM | 7300 nM | 880 nM |  |  |  | 
CCC1=C[C@H]2CN(CCc3c([nH]c4ccc(C)cc34)[C@@](C(=O)OC)(c3cc4c(cc3OC)N(C)[C@H]3[C@@](O)(C(=O)OC)[C@H](OC(C)=O)[C@]5(CC)C=CCN6CC[C@]43[C@@H]65)C2)C1 | 65 nM | 640 nM | 65 nM |  |  |  | 
CC[C@]1(O)C[C@H]2CN(CCc3c([nH]c4ccc(C)cc34)[C@@](C(=O)OC)(c3cc4c(cc3OC)N(C)[C@H]3[C@@](O)(C(=O)OC)[C@H](OC(C)=O)[C@]5(CC)C=CCN6CC[C@]43[C@@H]65)C2)C1 | 7.8 nM | 600 nM | 7.8 nM |  |  |  | 
CCC1=C[C@H]2CN(CCc3c([nH]c4ccc(Cl)cc34)[C@@](C(=O)OC)(c3cc4c(cc3OC)N(C)[C@H]3[C@@](O)(C(=O)OC)[C@H](OC(C)=O)[C@]5(CC)C=CCN6CC[C@]43[C@@H]65)C2)C1 | 60 nM | 800 nM | 70 nM |  |  |  | 
CCC1=C[C@H]2CN(CCc3c([nH]c4ccc(Br)cc34)[C@@](C(=O)OC)(c3cc4c(cc3OC)N(C)[C@H]3[C@@](O)(C(=O)OC)[C@H](OC(C)=O)[C@]5(CC)C=CCN6CC[C@]43[C@@H]65)C2)C1 | 65 nM | 860 nM | 70 nM |  |  |  | 
CCC1=C[C@H]2CN(CCc3c([nH]c4ccc(OC)cc34)[C@@](C(=O)OC)(c3cc4c(cc3OC)N(C)[C@H]3[C@@](O)(C(=O)OC)[C@H](OC(C)=O)[C@]5(CC)C=CCN6CC[C@]43[C@@H]65)C2)C1 | 550 nM | 5500 nM | 640 nM |  |  |  | 
CC[C@]1(O)C[C@H]2CN(CCc3c([nH]c4c(I)cccc34)[C@@](C(=O)OC)(c3cc4c(cc3OC)N(C)[C@H]3[C@@](O)(C(=O)OC)[C@H](OC(C)=O)[C@]5(CC)C=CCN6CC[C@]43[C@@H]65)C2)C1 | 55 nM | 910 nM | 80 nM |  |  |  | 
CCC1=C[C@H]2CN(CCc3c([nH]c4c(I)cccc34)[C@@](C(=O)OC)(c3cc4c(cc3OC)N(C)[C@H]3[C@@](O)(C(=O)OC)[C@H](OC(C)=O)[C@]5(CC)C=CCN6CC[C@]43[C@@H]65)C2)C1 | 690 nM | 6200 nM | 870 nM |  |  |  | 
CCC1=C[C@H]2CN(CCc3c([nH]c4ccc(O)cc34)[C@@](C(=O)OC)(c3cc4c(cc3OC)N(C)[C@H]3[C@@](O)(C(=O)OC)[C@H](OC(C)=O)[C@]5(CC)C=CCN6CC[C@]43[C@@H]65)C2)C1 | 590 nM | 7200 nM | 500 nM |  |  |  | 
CCC1=C[C@H]2CN(CCc3c([nH]c4ccc(C#N)cc34)[C@@](C(=O)OC)(c3cc4c(cc3OC)N(C)[C@H]3[C@@](O)(C(=O)OC)[C@H](OC(C)=O)[C@]5(CC)C=CCN6CC[C@]43[C@@H]65)C2)C1 | 65 nM | 920 nM | 70 nM |  |  |  | 
CC[C@]1(O)C[C@H]2CN(CCc3c([nH]c4c(Br)cccc34)[C@@](C(=O)OC)(c3cc4c(cc3OC)N(C)[C@H]3[C@@](O)(C(=O)OC)[C@H](OC(C)=O)[C@]5(CC)C=CCN6CC[C@]43[C@@H]65)C2)C1 | 50 nM | 910 nM | 80 nM |  |  |  | 
CC[C@]1(O)C[C@H]2CN(CCc3c([nH]c4ccc(Br)cc34)[C@@](C(=O)OC)(c3cc4c(cc3OC)N(C)[C@H]3[C@@](O)(C(=O)OC)[C@H](OC(C)=O)[C@]5(CC)C=CCN6CC[C@]43[C@@H]65)C2)C1 | 8 nM | 270 nM | 8.6 nM |  |  |  | 
CC[C@]1(O)C[C@H]2CN(CCc3c([nH]c4ccccc34)[C@@](C(=O)OC)(c3cc4c(cc3OC)N(C=O)[C@H]3[C@@](O)(C(=O)OC)[C@H](OC(C)=O)[C@]5(CC)C=CCN6CC[C@]43[C@@H]65)C2)C1 [VINCRISTINE] | 6 nM |  | 7 nM |  |  |  | 
CC[C@]1(O)C[C@H]2CN(CCc3c([nH]c4ccc(C#N)cc34)[C@@](C(=O)OC)(c3cc4c(cc3OC)N(C)[C@H]3[C@@](O)(C(=O)OC)[C@H](OC(C)=O)[C@]5(CC)C=CCN6CC[C@]43[C@@H]65)C2)C1 | 630 nM | > 10000 nM | 620 nM |  |  |  | 
CCC1=C[C@H]2CN(CCc3c([nH]c4ccccc34)[C@@](C(=O)OC)(c3cc4c(cc3OC)N(C)[C@H]3[C@@](O)(C(=O)OC)[C@H](OC(C)=O)[C@]5(CC)C=CCN6CC[C@]43[C@@H]65)C2)C1 | 65 nM | 600 nM | 75 nM |  |  |  | 
CCC1=C[C@H]2CN(CCc3c([nH]c4c(F)cccc34)[C@@](C(=O)OC)(c3cc4c(cc3OC)N(C)[C@H]3[C@@](O)(C(=O)OC)[C@H](OC(C)=O)[C@]5(CC)C=CCN6CC[C@]43[C@@H]65)C2)C1 | 650 nM | 6700 nM | 790 nM |  |  |  | 
CCC1=C[C@H]2CN(CCc3c([nH]c4ccc(F)cc34)[C@@](C(=O)OC)(c3cc4c(cc3OC)N(C)[C@H]3[C@@](O)(C(=O)OC)[C@H](OC(C)=O)[C@]5(CC)C=CCN6CC[C@]43[C@@H]65)C2)C1 | 30 nM | 290 nM | 50 nM |  |  |  | 
CC[C@]1(O)C[C@@H]2CN(CCc3c([nH]c4ccccc34)[C@@](C(=O)OC)(c3cc4c(cc3OC)N(C)[C@H]3[C@@](O)(C(=O)OC)[C@H](OC(C)=O)[C@]5(CC)C=CCN6CC[C@]43[C@@H]65)C2)C1 [VINBLASTINE] |  | 600 nM |  |  |  |  | Active
